Experimental data: publication PMC5159279 (Hypertension (Dallas, Tex. : 1979), 2016)

Experiments:
[1] = system: arterioles from adipose biopsies of patients with hypertension; assay: Human ex vivo vasoreactivity, phenylephrine cumulative dose response; conditions: cumulative dose response without HbαX
[2] = system: mice with AngII-induced hypertension; assay: Radiotelemetry blood pressure, AngII-induced hypertensive mice; format: in vivo; conditions: AngII 1000 ng/kg/min by osmotic mini-pump; from a baseline of 110 mmHg
[3] = system: hemoglobin in red blood cells; assay: Red blood cell oxygen p50; conditions: fresh human blood; 5 minutes incubation; HbαX 30 μmol/L; n=3

CNC[C@H](O)c1cccc(O)c1 [phenylephrine]
responsiveness of human arterioles to PE [1]: responsive

Angiotensin II [AngII]
systolic blood pressure on AngII [2]: ~ 170 mmHg

FPYFSTKLTT [control peptide]
oxygen p50 of hemoglobin in RBCs [3]: did not significantly change the oxygen p50
